Data as given in patent publication US20120142947A1, “Stabilized 3-Hydroxyflavan Compositions and Methods Therefor” (priority 2005, published 2012).

Test: Prevention of discoloration of EGCG solutions (absorbance at 492 nm)
Assay type: physicochemical
Conditions: for protection of EGCG from discoloration by reducing agent: further experiments at the observed pH ranges (data not shown)
Experimental: Discoloration was measured using a spectrophotometer at a fixed wavelength of 492 nm. More specifically, solutions of EGCG (2 mM) and NAC (4 mM) were prepared in McIlvaine buffer at various pH levels in 1.0 increments between pH 3.0 to pH 7.0. A control experiment was set up without NAC but otherwise identical conditions. The so prepared solutions were incubated at 55° C. and the discoloration was measured at 492 nm over the next 15 days.

discoloration measured at 492 nm (EGCG (2 mM) and NAC (4 mM) in McIlvaine buffer, pH levels of less than 6.0, 55° C., over 15 days, versus control without NAC)	protection of EGCG from discoloration by reducing agent	Structure (SMILES)
substantially reduced	prevented discoloration	CC(=O)N[C@@H](CS)C(=O)O [NAC, N-acetyl cysteine]
–	prevented discoloration	N[C@@H](CCC(=O)N[C@@H](CS)C(=O)NCC(=O)O)C(=O)O [glutathione]

Structure (SMILES)	discoloration measured at 492 nm (EGCG (2 mM) and NAC (4 mM) in McIlvaine buffer, pH levels of less than 6.0, 55° C., over 15 days, versus control without NAC)	protection of EGCG from discoloration by reducing agent
N[C@@H](CS)C(=O)O [cysteine]	–	failed to provide significant protection from discoloration
